This note sets out measurements from US9896447B2, “TrkA kinase inhibitors, compositions and methods thereof” (MERCK SHARP & DOHME CORP., priority 2013, dated 2018).

This test has as its target TrkA receptor (Homo sapiens (Human), UniProt P04629). The experiment in a line: DiscoverX PathHunter TrkA functional assay (U2OS cells, NGF stimulated). The note with it: U2OS cells expressing TrkA-Prolink and Shc1-EA; compound 1 hour, then EC80 of NGF for 3 hours; luminescence. The format is cell-based. Here is the method: TrkA functional activity was measured using a DiscoverX PathHunter assay. In this assay, U2OS cells are express TrkA receptor as a fusion with the weakly complementing fragment of B-galactosidase, which DiscoverX calls “Prolink (PK)”; additionally, Shc1 is fused with a larger fragment, which is called “Enzyme Acceptor (EA)”. Activation of the TrkA receptor, upon NGF addition, results in the kinase domain being phosphorylated, resulting in subsequent recruitment of Shc1-EA protein. That recruitment results in an active B-galactosidase enzyme that is detected by addition of a chemiluminescent substrate.
All reagents were purchased from DiscoverX, except for the receptor agonists (NGF, BDNF, NT3) which were purchased from Peprotech. Cells were expanded and frozen into cryovials (TrkA p75 @ passage 13, 1.5×10^7 cells/vial; TrkC p75 @ passage 11, 1.5×10^7 cells/vial in InVitrogen Recovery Cell Freezing media), and stored in the vapor phase of liquid nitrogen, and thawed immediately before use. Thawed cells were added to a 384-well plate (BD Falcon 384-well white/clear, TC surface 120 uL assay plates (353963), 20 uL of 0.375e6 cells/mL=>7500 cells/well), and allowed to incubate overnight. Compound (10 mM starting dose: 202.5 nL compound yielding 0.81% DMSO final in total assay volume and starting doses 81 uM) was added the following morning and allowed to incubate on cells for 1 hour. Then, 5 uL EC80 of agonist (NGF for TrkA; BDNF for TrkB; NT3 for TrkC) was added and allowed to incubate for 3 hours at room temperature. DiscoverX PathHunter detection reagent is added (12 uL to plate and components diluted in parts as per kit instructions) and the plate is further incubated for 1 hour in the dark. The plate is read via luminescence on the Perkin Elmer Envision.

TrkA receptor, sequence (P04629 33-796): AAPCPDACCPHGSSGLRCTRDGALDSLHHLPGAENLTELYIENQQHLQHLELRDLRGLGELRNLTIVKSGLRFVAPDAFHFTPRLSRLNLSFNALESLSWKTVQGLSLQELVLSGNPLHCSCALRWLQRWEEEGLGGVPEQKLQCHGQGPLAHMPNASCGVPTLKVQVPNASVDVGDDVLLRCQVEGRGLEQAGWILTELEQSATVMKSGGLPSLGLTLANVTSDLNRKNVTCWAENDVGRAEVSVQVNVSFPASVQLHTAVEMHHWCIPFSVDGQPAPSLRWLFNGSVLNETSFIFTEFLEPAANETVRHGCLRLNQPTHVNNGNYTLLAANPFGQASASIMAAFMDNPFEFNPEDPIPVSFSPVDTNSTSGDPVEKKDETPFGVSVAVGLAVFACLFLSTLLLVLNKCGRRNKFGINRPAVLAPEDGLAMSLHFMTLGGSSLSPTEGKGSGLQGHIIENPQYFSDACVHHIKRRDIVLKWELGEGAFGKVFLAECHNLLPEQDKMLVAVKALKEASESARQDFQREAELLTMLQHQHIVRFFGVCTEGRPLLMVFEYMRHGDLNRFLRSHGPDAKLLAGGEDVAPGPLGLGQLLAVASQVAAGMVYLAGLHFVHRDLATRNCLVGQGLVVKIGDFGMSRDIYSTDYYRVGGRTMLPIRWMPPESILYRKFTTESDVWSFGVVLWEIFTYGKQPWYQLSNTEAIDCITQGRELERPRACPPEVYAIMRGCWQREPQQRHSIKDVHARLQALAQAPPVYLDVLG

What is called IC50 is the point on the concentration scale where inhibition reaches its midpoint. A high value points to weaker potency. In turn, `Cc1ncc(NC(=O)NCc2ccccc2SC(F)(F)F)c(-c2ccccc2)n1` [Compound 40, 1-(2-methyl-4-phenylpyrimidin-5-yl)-3-{2-[(trifluoromethyl)sulfanyl]benzyl}urea] gave an IC50 of 680 nM. Next, `Cc1ncc(NC(=O)N[C@@H](C)C2CCCCC2)c(-c2ccccc2)n1` [Compound 41, 1-[(1S)-1-cyclohexylethyl]-3-(2-methyl-4-phenylpyrimidin-5-yl)urea]: 2100 nM; `Cn1ncc(NC(=O)NCc2ccccc2C(F)(F)F)c1-c1ccccc1` [Compound 42, 1-(1-methyl-5-phenyl-1H-pyrazol-4-yl)-3-[2-(trifluoromethyl)benzyl]urea]: 1400 nM; `Cc1ncc(NC(=O)NCc2cc(F)ccc2C(F)(F)F)c(-c2ccccc2)n1` [Compound 43, 1-[5-fluoro-2-(trifluoromethyl)benzyl]-3-(2-methyl-4-phenylpyrimidin-5-yl)urea]: 1400 nM. Consider `O=C(NCc1ccccc1SC(F)(F)F)Nc1ccnn1-c1ccccc1` [Compound 44, 1-(1-phenyl-1H-pyrazol-5-yl)-3-{2-[(trifluoromethyl)sulfanyl]benzyl}urea], for which the IC50 was determined as 420 nM. Next, `Cc1onc(-c2ccccc2)c1NC(=O)NCc1ccccc1SC(F)(F)F` [Compound 45, 1-(5-methyl-3-phenylisoxazol-4-yl)-3-{2-[(trifluoromethyl)sulfanyl]benzyl}urea]: 420 nM; `Cn1ncc(NC(=O)NCc2ccccc2OC(F)(F)F)c1-c1ccccc1` [Compound 46, 1-(1-methyl-5-phenyl-1H-pyrazol-4-yl)-3-[2-(trifluoromethoxy)benzyl]urea]: 1600 nM.
